# Measurements: patent US11530226B2, “Azepane inhibitors of menin-MLL interaction” (Janssen Pharmaceutica NV, priority 2016, dated 2022)
# System: MV-4-1 1 cells (MLL-AF4)
# Test: Proliferation assay (spheroid-like growth, 8 d, live-cell imaging), MV-4-11
# Format: cell-based, human
# Details: Homo sapiens, MV4-11, 192 h, MV-4-11 cells, absolute IC50 from AUC of confluence, read-out: (3) Spheroid assay MV-4-11 (IC50 (μM))
# Procedure: The anti-proliferative effect of menin/MLL protein/protein interaction inhibitor test compounds was assessed in human leukemia cell lines. The cell lines MV-4-1 1 and MOLM14 harbor MEL translocations and express the MEL fusion proteins MLL-AF4 and MLL-AF9, respectively, as well as the wildtype protein from the second allele. […] K562 was used as a control cell line containing two MLL wildtype alleles in order to exclude compounds that display general cytotoxic effects.
# MV-4-1 1 and MOLM14 were cultured in RPMI-1640 (Sigma Aldrich) supplemented with 10% fetal bovine serum (HyClone), 2 mM L-glutamine (Sigma Aldrich) and 50 μg/ml gentamycin (Gibco). K562 were propagated in RPMI-1640 (Sigma Aldrich) supplemented with 20% fetal bovine serum (HyClone), 2 mM L-glutamine (Sigma Aldrich) and 50 μg/ml gentamycin (Gibco).
# In order to assess the anti-proliferative effects, 1,500 MV-4-1 1, 300 MOLM14 or 750 K562 cells were seeded in 200 μl media per well in 96-well round bottom, ultra-low attachment plates (Costar, catalogue number 7007). Cell seeding numbers were chosen based on growth curves to ensure linear growth throughout the experiment. Test compounds were added at different concentrations and the DMSO content was normalized to 0.3%>. Cells were incubated for 8d at 37° C. and 5% C02. Spheroid like growth was monitored in real-time by live-cell imaging (IncuCyteZOOM, Essenbio, 4× objective) acquiring one image every four hours for 8d. Confluence (%) as a measure of spheroid size was determined using an integrated analysis tool.
# In order to determine the cumulative effect of the test compounds over time, the area under the curve (AUC) in a plot of confluence against time was calculated. Confluence at the beginning of the experiment (t=0) was used as baseline for the AUC calculation.
# Absolute IC50 values were calculated according to the following procedure: % Control=(AUC sample/AUC control)*100 AUC control=mean AUC of control values(cells without compound/DMSO as vehicle control)
# A non-linear curve fit was applied using the least squares (ordinary) fit method to the plot of % control versus compound concentration. Based on this, the absolute IC50 value (half maximal inhibitory concentration of the test compound causing an anti-proliferative effect of 50% relative to the vehicle control) was calculated.
row,Structure (SMILES),IC50 [µM]
1,Cn1cc(CNC2CCCN(c3ncnc4sc(CC(F)(F)F)cc34)CC2)cn1 (racemic) [Compound 11],2
2,"Cc1ccc(CN[C@H]2CCCN(c3ncnc4sc(CC(F)(F)F)cc34)CC2)c(C)c1 (single isomer, unassigned) [Compound 9B]",0.9
3,"Cn1cc(CNC2CCCN(c3ncnc4sc(CC(F)(F)F)cc34)CC2)cn1 (single isomer, unassigned) [Compound 11A]",1.6
4,"Cn1cncc1CN[C@@H]1CCCN(c2ncnc3sc(CC(F)(F)F)cc23)CC1 (single isomer, unassigned) [Compound 28]",3.4

# Biological target: T1, terbium chelate-labeled menin / FITC-MBM1 peptide (Menin/MLL) (Homo sapiens, UniProt O00255, T541A)
# T1 construct: Menin (a. a. l-610-6×his tag) was labeled with terbium cryptate as follows
# T1 sequence (O00255 with tags, fused parts or gaps T541A): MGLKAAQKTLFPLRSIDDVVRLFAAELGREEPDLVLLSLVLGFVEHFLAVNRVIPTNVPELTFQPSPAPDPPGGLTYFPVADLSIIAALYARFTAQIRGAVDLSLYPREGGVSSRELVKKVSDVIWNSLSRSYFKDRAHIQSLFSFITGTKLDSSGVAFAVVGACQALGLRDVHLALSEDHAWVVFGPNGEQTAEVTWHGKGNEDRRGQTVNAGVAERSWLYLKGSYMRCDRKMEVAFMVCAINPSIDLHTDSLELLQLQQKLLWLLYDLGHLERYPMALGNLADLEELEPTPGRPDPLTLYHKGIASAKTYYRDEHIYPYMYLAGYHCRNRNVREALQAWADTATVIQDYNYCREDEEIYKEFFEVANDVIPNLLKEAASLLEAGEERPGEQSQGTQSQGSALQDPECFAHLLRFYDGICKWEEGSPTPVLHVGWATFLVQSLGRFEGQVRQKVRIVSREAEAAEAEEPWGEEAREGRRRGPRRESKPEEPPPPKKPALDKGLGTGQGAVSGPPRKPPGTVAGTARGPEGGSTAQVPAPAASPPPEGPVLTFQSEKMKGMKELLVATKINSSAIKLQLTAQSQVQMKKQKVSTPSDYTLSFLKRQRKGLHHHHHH
# Test: Menin/MLL homogenous time-resolved fluorescence (HTRF) assay
# Format: binding
# Details: read-out: (2) Menin HTRF assay (IC50 (nM))
# Procedure: 2) Menin/MLL Homogenous Time-Resolved Fluorescence (HTRF) Assay
# To an untreated, white 384-well microtiter plate was added 40 nL 200× test compound in DMSO and 4 μL 2× terbium chelate-labeled menin (vide infra for preparation) in assay buffer (40 mM Tris .HCl, pH 7.5, 50 mM NaCl, 1 mM DTT and 0.05% Pluronic F-127). After incubation of test compound and terbium chelate-labeled menin for 5 min at ambient temperature, 4 μL 2×FITC-MBM1 peptide (FITC-P-alanine-SARWRFPARPGT-NH2) in assay buffer was added, the microtiter plate centrifuged at 1000 rpm for 1 min and the assay mixtures incubated for 15 min at ambient temperature. The relative amount of menin ⋅FITC-MBM1 complex present in an assay mixture is determined by measuring the homogenous time-resolved fluorescence (HTRF) of the terbium/FITC donor/acceptor fluorphore pair using a BMG Pherastar plate reader (ex. 337 nm/terbium cm. 490 nm/FITC cm. 520 nm) at ambient temperature. The degree of fluorescence resonance energy transfer (the HTRF value) is expressed as the ratio of the fluorescence emission intensities of the FITC and terbium fluorophores (P^m 520 nm//F^em 490 nm). The final concentrations of reagents in the binding assay are 100 pM terbium chelate-labeled menin, 75 nM FITC-MBM1 peptide and 0.5%) DMSO in assay buffer. Dose-response titrations of test compounds are conducted using an 11 point, three-fold serial dilution scheme, starting typically at 25 μM.
# Compound potencies were determined by first calculating % inhibition at each compound concentration according to equation 1: % inhibition=((HC−LC)−(HTRF^compound−LC))/(HC−LC))*100 (Eqn 1)
# Where LC and HC are the HTRF values of the assay in the presence or absence of a saturating concentration of a compound that competes with FITC-MBM1 for binding to menin, and HTRF^compound is the measured HTRF value in the presence of the test compound. HC and LC HTRF values represent an average of at least 16 replicates per plate.
# Where Bottom and Top are the lower and upper asymptotes of the dose-response curve, respectively, IC50 is the concentration of compound that yields 50% inhibition of signal and h is the Hill coefficient.
# Preparation of Terbium cryptate labeling of Menin: Menin (a. a. l-610-6×his tag) was labeled with terbium cryptate as follows. 2 mg of Menin was buffer exchanged into 1× phosphate buffered saline. 16 uM Menin was incubated with 4-fold molar excess NHS-terbium cryptate (Cisbio Bioassays, Bedford, Mass.) for 2 hours at room temperature. The labeled protein was purified away from free label by running the reaction over a Superdex 200 Increase 10/300 GL column at 0.75 ml/min. Peak fractions were collected, aliquoted and frozen at −80° C.
row,Structure (SMILES),IC50 [nM]
1,Cn1cc(CNC2CCCN(c3ncnc4sc(CC(F)(F)F)cc34)CC2)cn1 (racemic) [Compound 11],69
2,"Cc1ccc(CN[C@@H]2CCCN(c3ncnc4sc(CC(F)(F)F)cc34)CC2)c(C)c1 (single isomer, unassigned) [Compound 9A]",548
3,"Cc1ccc(CN[C@H]2CCCN(c3ncnc4sc(CC(F)(F)F)cc34)CC2)c(C)c1 (single isomer, unassigned) [Compound 9B]",22
4,"Cn1cc(CNC2CCCN(c3ncnc4sc(CC(F)(F)F)cc34)CC2)cn1 (single isomer, unassigned) [Compound 11A]",55
5,"Cn1cc(CNC2CCCN(c3ncnc4sc(CC(F)(F)F)cc34)CC2)cn1 (single isomer, unassigned) [Compound 11B]",1470
6,"CC(C)N[C@@H]1CCCN(c2ncnc3sc(CC(F)(F)F)cc23)CC1 (single isomer, unassigned) [Compound 13A]",5270
7,"CC(C)NC1CCCN(c2ncnc3sc(CC(F)(F)F)cc23)CC1 (single isomer, unassigned) [Compound 13B]",2460
8,"FC(F)(F)Cc1cc2c(N3CCC[C@@H](NCc4cn[nH]c4)CC3)ncnc2s1 (single isomer, unassigned) [Compound 26]",27
9,"Cn1cncc1CN[C@@H]1CCCN(c2ncnc3sc(CC(F)(F)F)cc23)CC1 (single isomer, unassigned) [Compound 28]",149
10,"CC(C)[C@H](N[C@H]1CCCN(c2ncnc3sc(CC(F)(F)F)cc23)CC1)C1CNC1 (single isomer, unassigned) [Compound 32]",758
11,"CC(C)[C@@H](N[C@@H]1CCCN(c2ncnc3sc(CC(F)(F)F)cc23)CC1)C1CNC1 (single isomer, unassigned) [Compound 35]",1010
12,"C[C@@H](N[C@@H]1CCCN(c2ncnc3sc(CC(F)(F)F)cc23)CC1)c1cnn(C)c1 (single isomer, unassigned) [Compound 54A]",11900
13,"C[C@H](N[C@@H]1CCCN(c2ncnc3sc(CC(F)(F)F)cc23)CC1)c1cnn(C)c1 (single isomer, unassigned) [Compound 54B]",13200
14,"C[C@H](N[C@H]1CCCN(c2ncnc3sc(CC(F)(F)F)cc23)CC1)c1cnn(C)c1 (single isomer, unassigned) [Compound 54C]",1490
15,"C[C@@H](N[C@H]1CCCN(c2ncnc3sc(CC(F)(F)F)cc23)CC1)c1cnn(C)c1 (single isomer, unassigned) [Compound 54D]",6760
16,"CC(C)CN(Cc1cnn(C)c1)[C@@H]1CCCN(c2ncnc3sc(CC(F)(F)F)cc23)CC1 (single isomer, unassigned) [Compound 58A]",1550
17,"CC(C)CN(Cc1cnn(C)c1)[C@H]1CCCN(c2ncnc3sc(CC(F)(F)F)cc23)CC1 (single isomer, unassigned) [Compound 58B]",888
18,"FC(F)(F)Cc1cc2c(N3CCC[C@@H](N(Cc4ccccc4)C4COC4)CC3)ncnc2s1 (single isomer, unassigned) [Compound 59A]",709

row,Structure (SMILES),IC50 [nM]
1,"FC(F)(F)Cc1cc2c(N3CCC[C@H](N(Cc4ccccc4)C4COC4)CC3)ncnc2s1 (single isomer, unassigned) [Compound 59B]",1150
2,"Cn1ncc2c1CCC[C@H]2N[C@@H]1CCCN(c2ncnc3sc(CC(F)(F)F)cc23)CC1 (single isomer, unassigned) [Compound 65A]",3500
3,"Cn1cc2c(n1)CCC[C@H]2N[C@@H]1CCCN(c2ncnc3sc(CC(F)(F)F)cc23)CC1 (single isomer, unassigned) [Compound 66A]",7440
4,"Cn1cc2c(n1)CCC[C@H]2N[C@H]1CCCN(c2ncnc3sc(CC(F)(F)F)cc23)CC1 (single isomer, unassigned) [Compound 66C]",5380
5,"Cn1cc2c(n1)CCC[C@@H]2N[C@H]1CCCN(c2ncnc3sc(CC(F)(F)F)cc23)CC1 (single isomer, unassigned) [Compound 66D]",880
6,"C[C@@H]1CCN(c2ncnc3sc(CC(F)(F)F)cc23)CC[C@@H]1NCc1ccccc1 (single isomer, unassigned) [Compound 68B]",522
7,O=C(NC1CCCN(c2ncnc3sc(CC(F)(F)F)cc23)CC1)[C@H]1CC2(CC2)CN1 (stereo partly shown) [Compound 10A],1530
8,CC(C)[C@@H](CO)N[C@@H]1CCCN(c2ncnc3sc(CC(F)(F)F)cc23)CC1 [Compound 14A],4470
9,CC(C)[C@@H](CO)N[C@H]1CCCN(c2ncnc3sc(CC(F)(F)F)cc23)CC1 [Compound 14B],767
10,CNCCN(Cc1cnn(C)c1)C1CCCN(c2ncnc3sc(CC(F)(F)F)cc23)CC1 (stereo not shown) [Compound 39],852
11,CNC(=O)[C@@H](NC1CCCN(c2ncnc3sc(CC(F)(F)F)cc23)CC1)C(C)C (stereo partly shown) [Compound 52],20800
12,FC(F)(F)Cc1cc2c(N3CCCC(NCC4CCOCC4)CC3)ncnc2s1 (stereo not shown) [Compound 55],227
13,CN(C)CCCNC1CCCN(c2ncnc3sc(CC(F)(F)F)cc23)CC1 (stereo not shown) [Compound 56],724
14,CN(C)CCCCN(Cc1cnn(C)c1)C1CCCN(c2ncnc3sc(CC(F)(F)F)cc23)CC1 (stereo not shown) [Compound 61],181
15,CN(C)CCCN(Cc1cnn(C)c1)C1CCCN(c2ncnc3sc(CC(F)(F)F)cc23)CC1 (stereo not shown) [Compound 63],369
16,Cn1ncc2c1CCC[C@H]2N[C@H]1CCCN(c2ncnc3sc(CC(F)(F)F)cc23)CC1 [Compound 65C],686
17,Cn1ncc2c1CCC[C@@H]2N[C@H]1CCCN(c2ncnc3sc(CC(F)(F)F)cc23)CC1 [Compound 65D],8690
18,FC(F)(F)Cc1cc2c(N3CCCC(NCc4ccncn4)CC3)ncnc2s1 (stereo not shown) [Compound 69],598
